Results published in ChEMBL document CHEMBL1201862, “PubChem BioAssay data set” (2004).
Calls of active or inactive are those of the source.

Legend:
[1] = biological target: T1, Apoptotic protease-activating factor 1 (Homo sapiens, UniProt O14727); type: functional
T1 sequence (O14727 whole entry): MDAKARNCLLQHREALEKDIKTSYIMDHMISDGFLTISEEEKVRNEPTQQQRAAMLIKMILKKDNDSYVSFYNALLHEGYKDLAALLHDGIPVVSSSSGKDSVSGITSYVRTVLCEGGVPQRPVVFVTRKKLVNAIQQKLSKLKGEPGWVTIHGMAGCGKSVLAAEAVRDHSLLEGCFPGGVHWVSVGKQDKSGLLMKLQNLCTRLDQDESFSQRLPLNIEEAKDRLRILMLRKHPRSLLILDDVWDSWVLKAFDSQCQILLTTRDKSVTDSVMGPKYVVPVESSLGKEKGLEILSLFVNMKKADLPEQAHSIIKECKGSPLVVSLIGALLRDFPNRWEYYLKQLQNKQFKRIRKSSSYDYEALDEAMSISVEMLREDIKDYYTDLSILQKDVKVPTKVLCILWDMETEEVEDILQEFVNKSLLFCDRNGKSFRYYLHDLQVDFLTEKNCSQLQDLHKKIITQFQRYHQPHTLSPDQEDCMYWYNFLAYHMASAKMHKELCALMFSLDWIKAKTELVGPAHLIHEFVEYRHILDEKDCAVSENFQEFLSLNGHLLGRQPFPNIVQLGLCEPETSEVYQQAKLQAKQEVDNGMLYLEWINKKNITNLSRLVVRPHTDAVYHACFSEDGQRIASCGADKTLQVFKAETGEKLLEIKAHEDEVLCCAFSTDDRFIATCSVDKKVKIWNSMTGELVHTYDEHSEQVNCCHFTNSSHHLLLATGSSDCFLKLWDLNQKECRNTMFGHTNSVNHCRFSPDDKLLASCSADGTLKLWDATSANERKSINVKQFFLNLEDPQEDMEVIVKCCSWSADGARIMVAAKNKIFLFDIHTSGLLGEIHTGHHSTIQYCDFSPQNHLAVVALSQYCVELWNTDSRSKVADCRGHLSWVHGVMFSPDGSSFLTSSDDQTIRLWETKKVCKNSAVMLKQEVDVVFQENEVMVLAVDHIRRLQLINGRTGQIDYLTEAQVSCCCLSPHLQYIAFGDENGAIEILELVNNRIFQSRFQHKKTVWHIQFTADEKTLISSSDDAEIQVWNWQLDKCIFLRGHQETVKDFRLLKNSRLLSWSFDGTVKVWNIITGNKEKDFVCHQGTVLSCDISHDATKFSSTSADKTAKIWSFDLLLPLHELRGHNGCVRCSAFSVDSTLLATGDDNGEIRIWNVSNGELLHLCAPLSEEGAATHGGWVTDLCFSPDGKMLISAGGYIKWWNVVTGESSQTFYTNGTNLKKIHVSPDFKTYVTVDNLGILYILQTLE

[2] = biological target: T2, Oxysterols receptor LXR-beta (Homo sapiens, UniProt P55055); assay: LXR agonists, Gal4 luciferase reporter, dose response, counter-screen for ssDAF-12 agonist project, cell-based, luminescence, HEK293, S. stercoralis campaign (AID 720737); type: functional; conditions: read-out: IC50 (the source's name)
T2 sequence (P55055 whole entry): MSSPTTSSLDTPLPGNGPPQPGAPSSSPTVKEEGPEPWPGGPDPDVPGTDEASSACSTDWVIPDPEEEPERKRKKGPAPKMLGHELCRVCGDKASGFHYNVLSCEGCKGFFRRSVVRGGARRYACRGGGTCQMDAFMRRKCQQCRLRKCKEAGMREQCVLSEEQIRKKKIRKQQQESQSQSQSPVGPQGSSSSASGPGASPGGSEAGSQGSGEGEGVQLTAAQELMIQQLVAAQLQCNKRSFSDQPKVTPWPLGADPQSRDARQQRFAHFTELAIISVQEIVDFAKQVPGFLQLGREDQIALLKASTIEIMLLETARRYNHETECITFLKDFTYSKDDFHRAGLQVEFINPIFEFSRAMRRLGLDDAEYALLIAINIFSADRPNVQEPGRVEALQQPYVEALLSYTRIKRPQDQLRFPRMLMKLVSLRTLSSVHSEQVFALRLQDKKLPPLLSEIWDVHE

IC50 [1]	SMILES	EC50 [2]
2.36 µM (active)	COc1ccc(/C=N/Nc2cc(N(C)C)nc(N(C)C)n2)cc1	–
–	C/C(=N\c1cccc(C)c1)c1sc2ccccc2c1O	> 67.6 µM (inactive)
